Active and inactive are the calls of the source. No cut-off for these calls is given here.
Tests used:
[1] = Cytotoxicity against mouse BV-2 cells assessed as cell viability at 40 uM measured after 24 hrs by MTT assay relative to control; format: toxicity, cell-based; conditions: read-out: Activity
BV-2 [2] = assay: Antineuroinflammatory activity in LPS induced mouse BV-2 cells assessed as inhibition of NO production pretreated for 3 hrs followed by LPS addition and measured after 21 hrs by griess reagent based assay; format: functional, cell-based
BV-2 [3] = assay: Cytotoxicity against mouse BV-2 cells assessed as cell viability at 40 uM measured after 24 hrs by MTT assay; format: toxicity, cell-based; conditions: bv-2, 24 h
BV-2 [4] = assay: Antineuroinflammatory activity in LPS induced mouse BV-2 cells assessed as inhibition of NO production at 20 uM pretreated for 3 hrs followed by LPS addition and measured after 21 hrs by griess reagent based assay relative to control; format: functional; parameters: scale not given: the % may be the effect or the level left; conditions: time 24 hrs
BV-2 [5] = assay: Antineuroinflammatory activity in mouse BV-2 cells assessed as reversal of LPS-induced cell shortening measured after 24 hrs by microscope based analysis; format: functional
BV-2 [6] = assay: Antineuroinflammatory activity in mouse BV-2 cells assessed as reversal of LPS-induced cell thickening measured after 24 hrs by microscope based analysis; format: functional
BV-2 [7] = assay: Antineuroinflammatory activity in mouse BV-2 cells assessed as reversal of LPS-induced enlarged cell bodies measured after 24 hrs by microscope based analysis; format: functional
BV-2 [8] = assay: Antineuroinflammatory activity in LPS-induced mouse BV-2 cells assessed as reduction in IL-6 expression at 5 uM preincubated for 3 hrs followed by LPS stimulation and measured after 21 hrs by ELISA method relative to control; format: functional; parameters: scale not given: the % may be the effect or the level left; conditions: time 24 hrs
BV-2 [9] = assay: Antineuroinflammatory activity in LPS-induced mouse BV-2 cells assessed as reduction in TNF-alpha expression at 5 uM preincubated for 3 hrs followed by LPS stimulation and measured after 21 hrs by ELISA method relative to control; format: functional; parameters: scale not given: the % may be the effect or the level left; conditions: time 24 hrs
BV-2 [10] = assay: Antineuroinflammatory activity in LPS-induced mouse BV-2 cells assessed as reduction in PGE2 cytokine production at 5 uM preincubated for 3 hrs followed by LPS stimulation and measured after 21 hrs by ELISA method relative to control; format: functional; parameters: scale not given: the % may be the effect or the level left; conditions: time 24 hrs
BV-2 [11] = assay: Antineuroinflammatory activity in LPS-induced mouse BV-2 cells assessed as reduction in IL-6 expression at 10 uM preincubated for 3 hrs followed by LPS stimulation and measured after 21 hrs by ELISA method relative to control; format: functional; parameters: scale not given: the % may be the effect or the level left; conditions: time 24 hrs
BV-2 [12] = assay: Antineuroinflammatory activity in LPS-induced mouse BV-2 cells assessed as reduction in TNF-alpha expression at 10 uM preincubated for 3 hrs followed by LPS stimulation and measured after 21 hrs by ELISA method relative to control; format: functional; parameters: scale not given: the % may be the effect or the level left; conditions: time 24 hrs
BV-2 [13] = assay: Antineuroinflammatory activity in LPS-induced mouse BV-2 cells assessed as reduction in PGE2 cytokine production at 10 uM preincubated for 3 hrs followed by LPS stimulation and measured after 21 hrs by ELISA method relative to control; format: functional; parameters: scale not given: the % may be the effect or the level left; conditions: time 24 hrs
BV-2 [14] = assay: Antineuroinflammatory activity in LPS-induced mouse BV-2 cells assessed as reduction in IL-6 expression at 20 uM preincubated for 3 hrs followed by LPS stimulation and measured after 21 hrs by ELISA method relative to control; format: functional; parameters: scale not given: the % may be the effect or the level left; conditions: time 24 hrs
BV-2 [15] = assay: Antineuroinflammatory activity in LPS-induced mouse BV-2 cells assessed as reduction in TNF-alpha expression at 20 uM preincubated for 3 hrs followed by LPS stimulation and measured after 21 hrs by ELISA method relative to control; format: functional; parameters: scale not given: the % may be the effect or the level left; conditions: time 24 hrs
BV-2 [16] = assay: Antineuroinflammatory activity in LPS-induced mouse BV-2 cells assessed as reduction in PGE2 cytokine production at 20 uM preincubated for 3 hrs followed by LPS stimulation and measured after 21 hrs by ELISA method relative to control; format: functional; parameters: scale not given: the % may be the effect or the level left; conditions: time 24 hrs
[17] = Antioxidant activity assessed as ABTS radical scavenging activity by absorbance based analysis; format: functional
[18] = Antioxidant activity assessed as DPPH radical scavenging activity by absorbance based analysis; format: functional
[19] = Inhibition of ROS production in LPS-induced mouse BV-2 cells as decrease in intracellular ROS production at 5 uM preincubated for 3 hrs followed by LPS stimulation and measured after 21 hrs by DCFH-DA staining based microscopic analysis relative to control; format: functional; conditions: time 24 hrs
[20] = Inhibition of ROS production in LPS-induced mouse BV-2 cells as decrease in intracellular ROS production at 10 uM preincubated for 3 hrs followed by LPS stimulation and measured after 21 hrs by DCFH-DA staining based microscopic analysis relative to control; format: functional; conditions: time 24 hrs
[21] = Inhibition of ROS production in LPS-induced mouse BV-2 cells as decrease in intracellular ROS production at 20 uM preincubated for 3 hrs followed by LPS stimulation and measured after 21 hrs by DCFH-DA staining based microscopic analysis relative to control; format: functional; conditions: time 24 hrs
BV-2 [22] = assay: Inhibition of ROS production in LPS-induced mouse BV-2 cells as decrease in intracellular ROS production preincubated for 3 hrs followed by LPS stimulation and measured after 21 hrs by DCFH-DA staining based microscopic analysis relative to control; format: functional, cell-based; conditions: dose 5-20 µM, time 24.0 hrs
BV-2 [23] = assay: Antineuroinflammatory activity in LPS-induced mouse BV-2 cells assessed as suppression of iNOS expression at 20 uM preincubated for 3 hrs followed by LPS stimulation and measured after 21 hrs by Western blot analysis (reference value: 524 +/-15%); format: functional; conditions: time 24 hrs
BV-2 [24] = assay: Antineuroinflammatory activity in LPS-induced mouse BV-2 cells assessed as suppression of COX-2 expression at 20 uM preincubated for 3 hrs followed by LPS stimulation and measured after 21 hrs by Western blot analysis (reference value: 172 +/-9%); format: functional; conditions: time 24 hrs
BV-2 [25] = assay: Antineuroinflammatory activity in LPS-induced mouse BV-2 cells assessed as suppression of TLR4 expression at 20 uM preincubated for 3 hrs followed by LPS stimulation and measured after 21 hrs by Western blot analysis (reference value: 414+/-14%); format: functional; conditions: time 24 hrs
BV-2 [26] = assay: Antineuroinflammatory activity in LPS-induced mouse BV-2 cells assessed as suppression of TAK1 expression at 20 uM preincubated for 3 hrs followed by LPS stimulation and measured after 21 hrs by Western blot analysis (reference value: 225+/-10%); format: functional; conditions: time 24 hrs
BV-2 [27] = assay: Antineuroinflammatory activity in LPS-induced mouse BV-2 cells assessed as suppression of p-IkappaBalpha/IkappaBalpha ratio at 20 uM preincubated for 3 hrs followed by LPS stimulation and measured after 21 hrs by Western blot analysis (reference value: 123+/-8%); format: functional
BV-2 [28] = assay: Antineuroinflammatory activity in LPS-induced mouse BV-2 cells assessed as decrease in ratio of nuclear p65 to cytoplasmic p65 at 20 uM preincubated for 3 hrs followed by LPS stimulation and measured after 21 hrs by Western blot analysis relative to control; format: functional; parameters: scale not given: the % may be the effect or the level left
BV-2 [29] = assay: Antineuroinflammatory activity in LPS-induced mouse BV-2 cells assessed as downregulation of keap1 expression at 20 uM preincubated for 3 hrs followed by LPS stimulation and measured after 21 hrs by Western blot analysis relative to control; format: functional; conditions: time 24 hrs
BV-2 [30] = assay: Antineuroinflammatory activity in LPS-induced mouse BV-2 cells assessed as upregulation of Nrf2 expression at 20 uM preincubated for 3 hrs followed by LPS stimulation and measured after 21 hrs by Western blot analysis relative to control; format: functional; conditions: time 24 hrs
BV-2 [31] = assay: Antineuroinflammatory activity in LPS-induced mouse BV-2 cells assessed as upregulation of HO-1 expression at 20 uM preincubated for 3 hrs followed by LPS stimulation and measured after 21 hrs by Western blot analysis relative to control; format: functional; conditions: time 24 hrs
BV-2 [32] = assay: Antineuroinflammatory activity in LPS-induced mouse BV-2 cells assessed as upregulation of CAT expression at 20 uM preincubated for 3 hrs followed by LPS stimulation and measured after 21 hrs by Western blot analysis relative to control; format: functional; conditions: time 24 hrs
Danio rerio [33] = species: Danio rerio; assay: Inhibition of LPS-induced ROS stress in Zebrafish embryo model assessed as reduction in ROS expression by measuring green fluorescence intensity at 15 to 30 uM pretreated for 2 hrs followed by LPS stimulation and measured after 12 hrs by H2DCF-DA staining based fluorescence microscopy analysis; format: functional, organism-based; conditions: dose 15-30 µM, time 14.0 hrs
Danio rerio [34] = species: Danio rerio; assay: Inhibition of LPS-induced ROS stress in Zebrafish embryo model assessed as reduction in ROS expression by measuring green fluorescence intensity at 30 uM pretreated for 2 hrs followed by LPS stimulation and measured after 12 hrs by H2DCF-DA staining based fluorescence microscopy analysis; format: functional, organism-based; conditions: time 14.0 hrs

COC(=O)c1cccc2nc3c([C@H](O)[C@@H](C)C(=O)OC)cccc3nc12
viability at 24 h, 40 µM [1]: > 98%
IC50 (BV-2 [2]): 8.3 µM

O=C(O)c1cccc2nc3ccccc3nc12 [PHENAZINE-1-CARBOXYLIC ACID]
viability at 24 h, 40 µM [1]: > 98%
IC50 (BV-2 [2]): 8.4 µM

O=c1c(O)c(-c2ccc(O)c(O)c2)oc2cc(O)cc(O)c12 [QUERCETIN]
IC50 (BV-2 [2]): 9.8 µM

COC(=O)c1cc2c([nH]c3ccccc32)c(-c2ccc(CO)o2)n1
Activity (BV-2 [3]): Toxic

COC(=O)[C@H](C)[C@@H](O)c1cccc2nc3c(C(=O)O)cccc3nc12
viability at 24 h, 40 µM [1]: > 98%
IC50 (BV-2 [2]): 8 µM
Activity (BV-2 [4]): 70%
Activity (BV-2 [5]): Dose-Dependent Effect
Activity (BV-2 [6]): Dose-Dependent Effect
Activity (BV-2 [7]): Dose-Dependent Effect
Activity (BV-2 [8]): 20%
Activity (BV-2 [9]): 10%
Activity (BV-2 [10]): 34%
Activity (BV-2 [11]): 38%
Activity (BV-2 [12]): 33%
Activity (BV-2 [13]): 47%
Activity (BV-2 [14]): 49%
Activity (BV-2 [15]): 47%
Activity (BV-2 [16]): 62%
EC50 [17]: 900 µM
EC50 [18]: 1900 µM
inhibition at 5 µM [19]: 8%
inhibition at 10 µM [20]: 30%
inhibition at 20 µM [21]: 66%
inhibition (BV-2 [22]): Dose-Dependent Effect
Activity (BV-2 [23]): 303%
Activity (BV-2 [24]): 105%
Activity (BV-2 [25]): 73%
Activity (BV-2 [26]): 38%
Activity (BV-2 [27]): 36%
Activity (BV-2 [28]): 60%
Activity (BV-2 [29]): 36%
Activity (BV-2 [30]): 67%
Activity (BV-2 [31]): 54%
Activity (BV-2 [32]): 10%
inhibition (Danio rerio [33]): Active

COC(=O)c1cccc2nc3c([C@@H](C)O)cccc3nc12
viability at 24 h, 40 µM [1]: > 98%
IC50 (BV-2 [2]): 8.5 µM

O=C1CCCCN1Cc1ccco1
viability at 24 h, 40 µM [1]: > 98%
IC50 (BV-2 [2]): > 20 µM

COC(=O)c1cccc2nc3ccccc3nc12
viability at 24 h, 40 µM [1]: > 98%
IC50 (BV-2 [2]): 8.6 µM

CC(=O)OC[C@H]1O[C@@H](n2cnc3c(N)ncnc32)[C@H](O)[C@@H]1O
viability at 24 h, 40 µM [1]: > 98%
IC50 (BV-2 [2]): > 20 µM

COC(=O)c1cccc2nc3c([C@H](O)[C@H](C)C(=O)OC)cccc3nc12
viability at 24 h, 40 µM [1]: > 98%
IC50 (BV-2 [2]): 8.2 µM

O=C1N[C@@H](Cc2c[nH]c3ccccc23)C(=O)N2CCC[C@@H]12 [BREVIANAMIDE F]
viability at 24 h, 40 µM [1]: > 98%
IC50 (BV-2 [2]): > 20 µM

CC(=O)NCC(=O)c1c[nH]c2ccccc12
viability at 24 h, 40 µM [1]: > 98%
IC50 (BV-2 [2]): > 20 µM

CC(=O)NCCC(=O)Nc1cccs1
viability at 24 h, 40 µM [1]: > 98%
IC50 (BV-2 [2]): 17.4 µM

COC(=O)C[C@@H](O)c1cccc2nc3c(C(=O)OC)cccc3nc12
viability at 24 h, 40 µM [1]: > 98%
IC50 (BV-2 [2]): 8.4 µM

CC(C)C[C@@H]1NC(=O)[C@H](Cc2c[nH]c3ccccc23)NC1=O
viability at 24 h, 40 µM [1]: > 98%
IC50 (BV-2 [2]): > 20 µM

CC(=O)NCCc1c[nH]c2ccccc12 [NB-ACETYLTRYPTAMINE]
viability at 24 h, 40 µM [1]: > 98%
IC50 (BV-2 [2]): > 20 µM

C[C@@H]1C[C@H]2[C@@H]3CCC4=CC(=O)C=C[C@]4(C)[C@@]3(F)[C@@H](O)C[C@]2(C)[C@@]1(O)C(=O)CO
inhibition (Danio rerio [34]): inactive

CSc1nc(NC/C=C(/C)CO)c2ncn([C@@H]3O[C@H](COC(C)=O)[C@@H](O)[C@H]3O)c2n1
viability at 24 h, 40 µM [1]: > 98%
IC50 (BV-2 [2]): > 20 µM

COC(=O)c1cccc2nc3c([C@H](OC(=O)c4ccc(Br)cc4)[C@@H](C)C(=O)OC)cccc3nc12
Activity (BV-2 [3]): Toxic

CSC(=N)N
IC50 (BV-2 [2]): 7.5 µM

O=C1CCCN1Cc1ccco1
viability at 24 h, 40 µM [1]: > 98%
IC50 (BV-2 [2]): > 20 µM

O=C(O)c1ccc[nH]1
viability at 24 h, 40 µM [1]: > 98%
IC50 (BV-2 [2]): 19.5 µM

From ChEMBL document CHEMBL5584315, “Evaluation of Phenazine Derivatives from the Lichen-Associated Streptomyces flavidovirens as Potent Antineuroinflammatory Agents In Vitro and In Vivo” (J Nat Prod, 2024)
